Assay results as given in ChEMBL document CHEMBL4311972, “Discovery of a benzothiophene-flavonol halting miltefosine and antimonial drug resistance in Leishmania parasites through the application of medicinal chemistry, screening and genomics” (Eur J Med Chem, 2019).

Tests used:
[1] = target: hERG (KCNH2) (Homo sapiens, UniProt Q12809); experiment: Inhibition of human ERG at 10 uM incubated for 2 hrs by fluorescence polarization assay relative to control
[2] = target: T1, CYP1A2 (Homo sapiens, UniProt P05177); experiment: Inhibition of human microsomal CYP1A2 expressed in baculovirus infected insect cells at 10 uM using luciferin-1A2 as substrate preincubated with enzyme/substrate mixture for 30 mins followed by further incubation with NADPH for 30 mins by CYP450 luciferase Glo assay relative to control; format: ADME; settings: probe luciferin-1A2
T1 sequence (P05177 whole entry): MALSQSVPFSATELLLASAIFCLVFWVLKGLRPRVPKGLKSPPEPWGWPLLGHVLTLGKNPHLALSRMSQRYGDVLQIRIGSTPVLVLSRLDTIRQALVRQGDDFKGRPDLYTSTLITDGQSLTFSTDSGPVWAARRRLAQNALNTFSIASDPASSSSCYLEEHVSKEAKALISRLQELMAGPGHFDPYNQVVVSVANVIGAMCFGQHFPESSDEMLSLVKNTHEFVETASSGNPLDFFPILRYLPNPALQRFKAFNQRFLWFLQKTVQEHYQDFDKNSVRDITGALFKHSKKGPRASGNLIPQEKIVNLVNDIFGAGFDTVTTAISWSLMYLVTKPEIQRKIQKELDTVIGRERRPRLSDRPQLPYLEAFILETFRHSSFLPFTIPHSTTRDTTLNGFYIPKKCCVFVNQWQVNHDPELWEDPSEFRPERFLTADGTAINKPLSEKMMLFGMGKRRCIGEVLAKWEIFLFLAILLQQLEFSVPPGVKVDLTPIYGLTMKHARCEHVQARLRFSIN

[3] = tested on: Trypanosoma brucei; experiment: Antitrypanosomal activity against Trypanosoma brucei bloodstream form assessed as parasite growth inhibition incubated for 72 hrs by resazurin dye based assay; format: functional, organism-based
[4] = Cytotoxicity against human A549 cells assessed as cell growth at […] incubated for 48 hrs by Celltiter-Glo luminescence assay relative to control; format: cell-based; parameters: dose or concentration left out as unconfirmed; settings: read-out: Activity
[5] = Selectivity index, ratio of CC50 for human THP1 cells to EC50 for Trypanosoma brucei bloodstream form; format: toxicity; settings: read-out: Ratio CC50/EC50
[6] = target: CYP3A4 (Homo sapiens, UniProt P08684); experiment: Inhibition of human microsomal CYP3A4 expressed in baculovirus infected insect cells at 10 uM using luciferin-IPA as substrate preincubated with enzyme/substrate mixture for 30 mins followed by further incubation with NADPH for 30 mins by CYP450 luciferase Glo assay relative to control; format: ADME; settings: probe luciferin-IPA
Sequence of CYP3A4 (P08684 whole entry): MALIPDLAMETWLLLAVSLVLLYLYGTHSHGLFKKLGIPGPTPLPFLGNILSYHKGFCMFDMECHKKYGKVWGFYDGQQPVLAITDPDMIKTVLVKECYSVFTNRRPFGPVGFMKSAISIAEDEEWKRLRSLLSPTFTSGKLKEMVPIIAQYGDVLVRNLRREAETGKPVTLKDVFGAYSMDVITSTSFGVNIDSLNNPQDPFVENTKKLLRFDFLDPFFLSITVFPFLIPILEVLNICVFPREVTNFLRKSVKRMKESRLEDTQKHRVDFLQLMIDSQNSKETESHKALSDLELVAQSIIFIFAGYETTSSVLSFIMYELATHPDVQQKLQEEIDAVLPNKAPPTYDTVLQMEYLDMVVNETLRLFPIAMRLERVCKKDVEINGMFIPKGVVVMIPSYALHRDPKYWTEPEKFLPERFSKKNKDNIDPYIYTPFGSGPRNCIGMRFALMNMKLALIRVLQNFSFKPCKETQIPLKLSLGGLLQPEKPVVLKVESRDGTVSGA

[7] = tested on: 786-0; experiment: Mitochondrial toxicity in human 786-0 cells at 10 uM incubated with compound for 6 hrs followed by incubation with MitoTracker Red chloromethyl-X-rosamine dye for 45 mins by imaging analysis; format: cell-based; settings: 786-0, 6 h
[8] = Cytotoxicity against human THP1 cells by MTT assay; format: cell-based, THP-1
[9] = target: CYP2D6 (Homo sapiens, UniProt P10635); experiment: Inhibition of human microsomal CYP2D6 expressed in baculovirus infected insect cells at 10 uM using luciferin-ME as substrate preincubated with enzyme/substrate mixture for 30 mins followed by further incubation with NADPH for 30 mins by CYP450 luciferase Glo assay relative to control; format: ADME; settings: probe luciferin-ME
Sequence of CYP2D6 (P10635 whole entry): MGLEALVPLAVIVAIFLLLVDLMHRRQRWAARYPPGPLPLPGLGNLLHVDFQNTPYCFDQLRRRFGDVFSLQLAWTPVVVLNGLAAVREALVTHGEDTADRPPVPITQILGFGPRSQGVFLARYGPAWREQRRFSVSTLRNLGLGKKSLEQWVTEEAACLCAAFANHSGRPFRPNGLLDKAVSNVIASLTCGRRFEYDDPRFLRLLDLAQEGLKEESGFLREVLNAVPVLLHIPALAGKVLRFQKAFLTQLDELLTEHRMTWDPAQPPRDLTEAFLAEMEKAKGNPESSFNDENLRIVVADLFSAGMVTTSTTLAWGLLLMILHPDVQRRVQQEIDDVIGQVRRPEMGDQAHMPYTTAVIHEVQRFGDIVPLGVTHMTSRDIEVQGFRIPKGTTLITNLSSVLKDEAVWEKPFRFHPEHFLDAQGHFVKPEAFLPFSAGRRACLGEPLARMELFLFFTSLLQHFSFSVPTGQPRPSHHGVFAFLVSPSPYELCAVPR

[10] = target: CYP2C9 (Homo sapiens, UniProt P11712); experiment: Inhibition of human microsomal CYP2C9 expressed in baculovirus infected insect cells at 10 uM using luciferin-H as substrate preincubated with enzyme/substrate mixture for 30 mins followed by further incubation with NADPH for 30 mins by CYP450 luciferase Glo assay relative to control; format: ADME; settings: probe luciferin-H
Sequence of CYP2C9 (P11712 whole entry): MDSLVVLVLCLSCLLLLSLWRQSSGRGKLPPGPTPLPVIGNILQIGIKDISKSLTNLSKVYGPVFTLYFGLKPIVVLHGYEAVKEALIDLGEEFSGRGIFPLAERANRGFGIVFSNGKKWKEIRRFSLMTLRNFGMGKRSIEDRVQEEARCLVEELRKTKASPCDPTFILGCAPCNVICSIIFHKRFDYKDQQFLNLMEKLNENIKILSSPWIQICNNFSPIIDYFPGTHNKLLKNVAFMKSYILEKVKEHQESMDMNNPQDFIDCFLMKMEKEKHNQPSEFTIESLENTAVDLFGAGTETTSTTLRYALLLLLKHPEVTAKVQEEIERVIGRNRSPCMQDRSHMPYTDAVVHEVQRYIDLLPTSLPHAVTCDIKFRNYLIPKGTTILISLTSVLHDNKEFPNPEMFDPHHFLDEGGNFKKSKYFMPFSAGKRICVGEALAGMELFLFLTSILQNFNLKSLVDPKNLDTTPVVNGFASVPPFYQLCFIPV

[11] = target: CYP2C19 (Homo sapiens, UniProt P33261); experiment: Inhibition of human microsomal CYP2C19 expressed in baculovirus infected insect cells at 10 uM using luciferin-H EGE as substrate preincubated with enzyme/substrate mixture for 30 mins followed by further incubation with NADPH for 30 mins by CYP450 luciferase Glo assay relative to control; format: ADME; settings: probe luciferin-H EGE
Sequence of CYP2C19 (P33261 whole entry): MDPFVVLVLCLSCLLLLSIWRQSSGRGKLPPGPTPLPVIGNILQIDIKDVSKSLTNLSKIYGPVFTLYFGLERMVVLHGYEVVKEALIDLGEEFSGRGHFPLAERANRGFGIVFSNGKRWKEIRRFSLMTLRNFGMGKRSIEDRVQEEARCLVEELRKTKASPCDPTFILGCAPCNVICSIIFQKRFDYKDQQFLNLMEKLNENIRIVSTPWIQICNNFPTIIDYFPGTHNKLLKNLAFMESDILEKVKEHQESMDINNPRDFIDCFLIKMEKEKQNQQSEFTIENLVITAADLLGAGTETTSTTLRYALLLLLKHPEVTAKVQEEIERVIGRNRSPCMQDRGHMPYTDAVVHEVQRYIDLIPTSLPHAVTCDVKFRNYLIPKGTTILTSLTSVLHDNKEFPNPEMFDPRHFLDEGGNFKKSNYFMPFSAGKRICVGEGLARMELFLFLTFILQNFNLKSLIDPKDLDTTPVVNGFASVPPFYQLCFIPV

[12] = tested on: Leishmania infantum; experiment: Antileishmanial activity against luciferase expressing intracellular amastigote stage of Leishmania infantum infected in human THP1 cells assessed as parasite growth inhibition measured after 48 to 72 hrs by steady-glo luciferase assay; format: functional, organism-based
[13] = Trypanosoma brucei, 72 h, read-out: EC50

Sequence of hERG (KCNH2) (Q12809 whole entry): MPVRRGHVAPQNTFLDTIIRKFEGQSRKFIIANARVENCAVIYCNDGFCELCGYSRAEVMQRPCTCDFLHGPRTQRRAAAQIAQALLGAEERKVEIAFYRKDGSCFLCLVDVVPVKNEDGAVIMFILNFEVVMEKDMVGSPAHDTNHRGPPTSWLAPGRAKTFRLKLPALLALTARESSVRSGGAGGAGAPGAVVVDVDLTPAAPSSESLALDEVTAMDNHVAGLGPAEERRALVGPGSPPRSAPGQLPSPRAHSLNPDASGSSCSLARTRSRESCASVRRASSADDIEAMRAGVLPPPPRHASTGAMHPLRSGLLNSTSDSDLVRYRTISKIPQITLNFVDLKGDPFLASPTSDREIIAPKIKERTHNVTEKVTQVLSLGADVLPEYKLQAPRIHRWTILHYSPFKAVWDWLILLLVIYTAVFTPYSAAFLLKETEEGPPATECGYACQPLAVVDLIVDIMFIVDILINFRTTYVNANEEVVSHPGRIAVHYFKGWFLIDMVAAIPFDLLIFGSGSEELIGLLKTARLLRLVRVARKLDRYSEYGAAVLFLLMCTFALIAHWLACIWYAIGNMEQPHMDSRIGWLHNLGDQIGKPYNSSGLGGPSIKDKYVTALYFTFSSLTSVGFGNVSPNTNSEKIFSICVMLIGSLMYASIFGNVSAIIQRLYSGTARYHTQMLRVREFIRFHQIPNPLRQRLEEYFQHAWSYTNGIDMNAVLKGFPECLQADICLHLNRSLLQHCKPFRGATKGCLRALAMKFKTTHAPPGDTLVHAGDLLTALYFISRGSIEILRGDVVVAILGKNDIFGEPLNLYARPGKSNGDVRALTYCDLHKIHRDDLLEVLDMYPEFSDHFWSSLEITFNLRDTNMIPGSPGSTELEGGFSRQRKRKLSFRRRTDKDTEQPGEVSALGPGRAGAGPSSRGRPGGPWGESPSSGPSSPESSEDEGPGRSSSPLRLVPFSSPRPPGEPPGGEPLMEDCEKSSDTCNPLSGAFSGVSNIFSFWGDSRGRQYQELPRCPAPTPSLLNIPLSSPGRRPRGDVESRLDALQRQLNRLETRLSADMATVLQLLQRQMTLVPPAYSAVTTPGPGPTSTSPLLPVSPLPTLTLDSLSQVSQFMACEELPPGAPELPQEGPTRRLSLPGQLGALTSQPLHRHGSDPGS

SMILES: Cc1ccc2oc(-c3ccc(C)s3)c(O)c(=O)c2c1
- inhibition at 2 h, 10 µM [1]: 34.3%
- inhibition at 0.5 h, 10 µM [2]: 96.5%
- EC50 [3, 13]: 3.3 µM
- viability at 48 h [4]: 30.9%
- selectivity ratio [5]: 7
- inhibition at 0.5 h, 10 µM [6]: 10.4%
- Activity [7]: -15.83%
- CC50 [8]: 25 to 50 µM
- inhibition at 0.5 h, 10 µM [9]: 22.6%
- inhibition at 0.5 h, 10 µM [10]: 6.64%
- inhibition at 0.5 h, 10 µM [11]: 19.1%

SMILES: COc1ccc2oc(-c3cc(C)cs3)c(O)c(=O)c2c1
- inhibition at 2 h, 10 µM [1]: 6.55%
- inhibition at 0.5 h, 10 µM [2]: 94.8%
- EC50 [3, 13]: 5.7 µM
- viability at 48 h [4]: 98.8%
- selectivity ratio [5]: 4
- inhibition at 0.5 h, 10 µM [6]: 4.51%
- Activity [7]: -5.29%
- CC50 [8]: 25 to 50 µM
- inhibition at 0.5 h, 10 µM [9]: 30.6%
- inhibition at 0.5 h, 10 µM [10]: 29.2%
- inhibition at 0.5 h, 10 µM [11]: 20.9%

SMILES: Cc1csc(-c2oc3ccc(C)cc3c(=O)c2O)c1
- inhibition at 2 h, 10 µM [1]: 13.2%
- inhibition at 0.5 h, 10 µM [2]: 98.8%
- EC50 [3, 13]: 2.8 µM
- viability at 48 h [4]: 15.3%
- selectivity ratio [5]: 36
- inhibition at 0.5 h, 10 µM [6]: 23.5%
- Activity [7]: -13.79%
- CC50 [8]: > 100 µM
- inhibition at 0.5 h, 10 µM [9]: 25.3%
- inhibition at 0.5 h, 10 µM [10]: 35.1%
- inhibition at 0.5 h, 10 µM [11]: 26.2%

SMILES: COc1ccc2oc(-c3c[nH]c4ccccc34)c(O)c(=O)c2c1
- inhibition at 2 h, 10 µM [1]: 41.2%
- inhibition at 0.5 h, 10 µM [2]: 101%
- EC50 [3, 13]: 1.4 µM
- viability at 48 h [4]: 20.9%
- selectivity ratio [5]: 8
- inhibition at 0.5 h, 10 µM [6]: 11%
- Activity [7]: -12.53%
- CC50 [8]: 12.5 to 25 µM
- inhibition at 0.5 h, 10 µM [9]: -8%
- inhibition at 0.5 h, 10 µM [10]: 28.8%
- inhibition at 0.5 h, 10 µM [11]: 32.6%

SMILES: COc1cccc2oc(-c3cc(C)cs3)c(O)c(=O)c12
- inhibition at 2 h, 10 µM [1]: -7.47%
- inhibition at 0.5 h, 10 µM [2]: 106%
- EC50 [3, 13]: 3.4 µM
- viability at 48 h [4]: 25.3%
- selectivity ratio [5]: 4
- inhibition at 0.5 h, 10 µM [6]: 24.5%
- Activity [7]: -7.63%
- CC50 [8]: 12.5 to 25 µM
- inhibition at 0.5 h, 10 µM [9]: 21.2%
- inhibition at 0.5 h, 10 µM [10]: 53.5%
- inhibition at 0.5 h, 10 µM [11]: 19.2%

SMILES: COc1ccc2c(=O)c(O)c(-c3cc(C)cs3)oc2c1
- inhibition at 2 h, 10 µM [1]: 5.93%
- inhibition at 0.5 h, 10 µM [2]: 103%
- EC50 [3, 13]: 3 µM
- viability at 48 h [4]: 80.9%
- selectivity ratio [5]: 8
- inhibition at 0.5 h, 10 µM [6]: 12.5%
- Activity [7]: 0.01%
- CC50 [8]: 25 to 50 µM
- inhibition at 0.5 h, 10 µM [9]: 33.6%
- inhibition at 0.5 h, 10 µM [10]: 59.6%
- inhibition at 0.5 h, 10 µM [11]: 77.9%

SMILES: O=c1c(O)c(-c2c[nH]c3ccccc23)oc2ccc(O)cc12
- inhibition at 2 h, 10 µM [1]: 53.2%
- inhibition at 0.5 h, 10 µM [2]: 101%
- EC50 [3, 13]: 3.1 µM
- viability at 48 h [4]: 5.87%
- selectivity ratio [5]: 16
- inhibition at 0.5 h, 10 µM [6]: 18.7%
- Activity [7]: 17.38%
- CC50 [8]: 50 to 100 µM
- inhibition at 0.5 h, 10 µM [9]: -0.42%
- inhibition at 0.5 h, 10 µM [10]: 40.2%
- inhibition at 0.5 h, 10 µM [11]: 47.9%

SMILES: Cc1ccc2c(=O)c(O)c(-c3csc4ccccc34)oc2c1
- inhibition at 2 h, 10 µM [1]: -15%
- inhibition at 0.5 h, 10 µM [2]: 94.2%
- EC50 [3, 13]: 4.5 µM
- viability at 48 h [4]: 50.1%
- inhibition at 0.5 h, 10 µM [6]: 13.2%
- Activity [7]: -19.4%
- EC50 [12]: Not Active
- CC50 [8]: 50 to 100 µM
- inhibition at 0.5 h, 10 µM [9]: 28.1%
- inhibition at 0.5 h, 10 µM [10]: 37%
- inhibition at 0.5 h, 10 µM [11]: 39.1%

SMILES: Cc1ccc2oc(-c3csc4ccccc34)c(O)c(=O)c2c1
- inhibition at 2 h, 10 µM [1]: -21.6%
- inhibition at 0.5 h, 10 µM [2]: 81.3%
- EC50 [3, 13]: 2 µM
- viability at 48 h [4]: 129%
- inhibition at 0.5 h, 10 µM [6]: -19.3%
- Activity [7]: -21.98%
- EC50 [12]: Not Active
- CC50 [8]: < 12.5 µM
- inhibition at 0.5 h, 10 µM [9]: 16%
- inhibition at 0.5 h, 10 µM [10]: 19.4%
- inhibition at 0.5 h, 10 µM [11]: 22.4%

SMILES: CCOc1ccc2c(=O)c(O)c(-c3csc4ccccc34)oc2c1
- inhibition at 2 h, 10 µM [1]: -3.21%
- inhibition at 0.5 h, 10 µM [2]: 81.8%
- EC50 [3]: Not Active
- viability at 48 h [4]: 11.9%
- inhibition at 0.5 h, 10 µM [6]: 11.5%
- Activity [7]: 29.51%
- EC50 [12]: Not Active
- CC50 [8]: 12.5 to 25 µM
- inhibition at 0.5 h, 10 µM [9]: 24.7%
- inhibition at 0.5 h, 10 µM [10]: 23%
- inhibition at 0.5 h, 10 µM [11]: 46.1%

SMILES: COc1ccc2oc(-c3cccc(-c4ccc(OC)c(OC)c4)c3)c(O)c(=O)c2c1
- inhibition at 2 h, 10 µM [1]: -14.3%
- inhibition at 0.5 h, 10 µM [2]: 83.1%
- EC50 [3, 13]: 3 µM
- viability at 48 h [4]: 19.5%
- selectivity ratio [5]: 8
- inhibition at 0.5 h, 10 µM [6]: 52.5%
- Activity [7]: -9.66%
- CC50 [8]: 25 to 50 µM
- inhibition at 0.5 h, 10 µM [9]: 40.6%
- inhibition at 0.5 h, 10 µM [10]: 40.1%
- inhibition at 0.5 h, 10 µM [11]: 22%

SMILES: Cc1csc(-c2oc3ccc(O)cc3c(=O)c2O)c1
- inhibition at 2 h, 10 µM [1]: 16.1%
- inhibition at 0.5 h, 10 µM [2]: 96.1%
- EC50 [3, 13]: 4.9 µM
- viability at 48 h [4]: 93.8%
- selectivity ratio [5]: 2
- inhibition at 0.5 h, 10 µM [6]: 17.6%
- Activity [7]: 4.24%
- CC50 [8]: 10 to 25 µM
- inhibition at 0.5 h, 10 µM [9]: 40.1%
- inhibition at 0.5 h, 10 µM [10]: 40.1%
- inhibition at 0.5 h, 10 µM [11]: 35.2%

SMILES: COc1ccc2oc(-c3cccc(-c4ccc5c(c4)OCO5)c3)c(O)c(=O)c2c1
- inhibition at 2 h, 10 µM [1]: 0.34%
- inhibition at 0.5 h, 10 µM [2]: 61.8%
- EC50 [3, 13]: 3.9 µM
- viability at 48 h [4]: 30.5%
- selectivity ratio [5]: 6
- inhibition at 0.5 h, 10 µM [6]: 44.6%
- Activity [7]: -1.63%
- CC50 [8]: 25 to 50 µM
- inhibition at 0.5 h, 10 µM [9]: 21.9%
- inhibition at 0.5 h, 10 µM [10]: 25.8%
- inhibition at 0.5 h, 10 µM [11]: 24.5%

SMILES: O=c1c(O)c(-c2csc3ccccc23)oc2cc(Cl)ccc12
- inhibition at 2 h, 10 µM [1]: 16.3%
- inhibition at 0.5 h, 10 µM [2]: 57.5%
- EC50 [3, 13]: 5.34 µM
- viability at 48 h [4]: -49.6%
- inhibition at 0.5 h, 10 µM [6]: -5.72%
- Activity [7]: 81.33%
- EC50 [12]: Not Active
- CC50 [8]: 50 to 100 µM
- inhibition at 0.5 h, 10 µM [9]: -3.33%
- inhibition at 0.5 h, 10 µM [10]: 5.82%
- inhibition at 0.5 h, 10 µM [11]: -6.35%
